Source: PubChem BioAssay AID1963831 (Molecular Pharmacology Branch, DTP, NCI, 2024)

Tested on: 889142-216-R-J1-PDC complex spheroid viability
Assay: Anticancer human tumor 889142-216-R-J1-PDC patient-derived bladder carcinoma cell line growth inhibition [POLQ]
Settings: for IC50: curve of first compound; for viability, T/C: stronger effect = lower value
Description: Multicellular complex tumor spheroid response to Polymerase (POL) inhibitors (novobiocin, ART-558, RP6685) in combination with a variety of drugs and investigational agents in selected tumor cell lines
The POL inhibitors (novobiocin, ART-558, and RP6685) were evaluated both individually and in combination with standard of care and investigational anticancer small molecules within a complex spheroid model of solid tumors. . Complex spheroids include a stromal component modeled by human endothelial cells (HUVEC) and fibroblasts modeled by human mesenchymal stem cells (MSCs). The concentration ranges selected for each drug and investigational agent were based upon clinically achievable concentrations if the clinical Cmax of the agent was known.
Compounds. The drugs and investigational agents: novobiocin (NSC847541), ART-558 (NSC835418), RP-6685 (NSC848927), peposertib (NSC802822), ceralasertib (NSC780249), elimusertib (NSC800525), camonsertib (NSC841442), AZD-1390 (NSC803789), olaparib (NSC753686), talazoparib (NSC767125), rucaparib (NSC756644), sotorasib (NSC818433), MRTX-1133 (NSC836407), SN-38 (NSC673596), topotecan (NSC609699), epotoside (NSC141540), doxorubicin (NSC123127), gemcitabine (NSC613327), 5-fluorouracil (NSC19893), paclitaxel (NSC125973), vemurafenib (NSC761431), MSA-2 (NSC828583), SN-011 (NSC837082), adavosertib (NSC754352), prexasertib (NSC758257), carboplatin (NSC241240) and oxaliplatin (NSC266046), were obtained from the National Cancer Institute (NCI) Developmental Therapeutics Program Chemical Repository (21). The FDA-approved anticancer drug set is available from the Developmental Therapeutics Program at https://dtp.cancer.gov/organization/dscb/obtaining/. […] The stock solutions were prepared in dimethyl sulfoxide (DMSO, Sigma-Aldrich, St. Louis, MO, cat. D2650), except for the platinum compounds which were prepared in saline (Quality Biological, Gaithersburg, MD, cat. 114-055-101), at 800-fold the tested concentration and stored at -70 degrees C prior to their use. All drugs and investigational agents were tested over a range starting from a high concentration at or near the clinical Cmax and decreasing in half-log increments. If the clinical Cmax for an agent had not been determined, the highest concentration tested was 10 microM, except for SN-38, which was tested at a high concentration of 1 microM.
Cell Culture. All cells were maintained in an incubator at 37 degrees C and 5% CO2 with 95% humidity. The PDC lines were cultured according to standard operating procedures established by the NCI PDMR (https://pdmr.cancer.gov). Table 3 of the manuscript, lists the cell lines along with the number of the three cell types plated to form the mct-spheroids and media for tumor cell growth. After thawing, all PDC lines, except 997537-175-T-J1-PDC and 415267-285-R-J2-PDC, were cultured in Matrigel-coated flasks prepared with a working solution of 1X Ham's F-12 nutrient mix, without supplementation (Thermo Fisher Scientific, cat. 11765054), 100 U/mL penicillin-streptomycin (Thermo Fisher Scientific, cat. 15140122), and 2.5% Matrigel (Corning Inc., Corning, NY, cat. 354248) for the first three passages. The two PDC lines 997537-175-T-J1-PDC and 415267-285-R-J2-PDC were cultured on uncoated flasks. The 857933-349-R-J2-PDC line was cultured in 6C/Colon 1B media containing advanced DMEM/F-12 (Thermo Fisher Scientific, cat. 12634028), 10 mM HEPES (Thermo Fisher Scientific, cat. 15630080), 1X GlutaMAX supplement (Thermo Fisher Scientific, cat. 35050061), 0.1 mg/mL primocin (InvivoGen, San Diego, CA, cat. ant-pm-2), 10% defined fetal bovine serum, heat inactivated (HyClone Laboratories Inc., Logan, UT, cat. SH30070.03HI), 50% L-WRN conditioned media (ATCC, cat. CRL-3276), 1.25 mM N-Acetyl-L-cysteine (Sigma-Aldrich, cat. A9165), 10 mM nicotinamide (Sigma-Aldrich, cat. N0636), 1X B-27 supplement (Thermo Fisher Scientific, cat. 17504044), 1X N-2 supplement (Thermo Fisher Scientific, cat. […]

[1] = second compound 0.0316 µM, first compound 0.0316 µM
[2] = second compound 0.0316 µM, first compound 0.1 µM
[3] = second compound 0.0316 µM, first compound 0.316 µM
[4] = second compound 0.0316 µM, first compound 1 µM
[5] = second compound 0.0316 µM, first compound 3.16 µM
[6] = second compound 0.0316 µM, first compound 10 µM
[7] = second compound 0.1 µM, first compound 0.0316 µM
[8] = second compound 0.1 µM, first compound 0.1 µM
[9] = second compound 0.1 µM, first compound 0.316 µM
[10] = second compound 0.1 µM, first compound 1 µM
[11] = second compound 0.1 µM, first compound 3.16 µM
[12] = second compound 0.1 µM, first compound 10 µM
[13] = second compound 0.316 µM, first compound 0.0316 µM
[14] = second compound 0.316 µM, first compound 0.1 µM
[15] = second compound 0.316 µM, first compound 0.316 µM
[16] = second compound 0.316 µM, first compound 1 µM
[17] = second compound 0.316 µM, first compound 3.16 µM
[18] = second compound 0.316 µM, first compound 10 µM
[19] = second compound 1 µM, first compound 0.0316 µM
[20] = second compound 1 µM, first compound 0.1 µM
[21] = second compound 1 µM, first compound 0.316 µM
[22] = second compound 1 µM, first compound 1 µM
[23] = second compound 1 µM, first compound 3.16 µM
[24] = second compound 1 µM, first compound 10 µM
[25] = second compound 3.16 µM, first compound 0.0316 µM
[26] = second compound 3.16 µM, first compound 0.1 µM
[27] = second compound 3.16 µM, first compound 0.316 µM
[28] = second compound 3.16 µM, first compound 1 µM
[29] = second compound 3.16 µM, first compound 3.16 µM
[30] = second compound 3.16 µM, first compound 10 µM
[31] = second compound 10 µM, first compound 0.0316 µM
[32] = second compound 10 µM, first compound 0.1 µM
[33] = second compound 10 µM, first compound 0.316 µM
[34] = second compound 10 µM, first compound 1 µM
[35] = second compound 10 µM, first compound 3.16 µM
[36] = second compound 10 µM, first compound 10 µM
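Also: spheroids exposed to compounds for seven days.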
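For viability, T/C in this document: 100% = DMSO vehicle control viability.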

## O=c1[nH]cc(F)c(=O)[nH]1 + COC1C(OC(N)=O)C(O)C(Oc2ccc3c(O)c(NC(=O)c4ccc(O)c(CC=C(C)C)c4)c(=O)oc3c2C)OC1(C)C
Second compound 0.0316 µM
  IC50: > 10000 nM
Second compound 0.1 µM
  IC50: > 10000 nM
Second compound 0.316 µM
  IC50: > 10000 nM
Second compound 1 µM
  IC50: > 10000 nM
Second compound 3.16 µM
  IC50: > 10000 nM
Second compound 10 µM
  IC50: > 10000 nM
[1]
  viability, T/C: 98.8%
[2]
  viability, T/C: 99.2%
[3]
  viability, T/C: 94.5%
[4]
  viability, T/C: 75%
[5]
  viability, T/C: 74%
[6]
  viability, T/C: 70.6%
[7]
  viability, T/C: 121%
[8]
  viability, T/C: 107%
[9]
  viability, T/C: 75.3%
[10]
  viability, T/C: 67.2%
[11]
  viability, T/C: 75.2%
[12]
  viability, T/C: 77.5%
[13]
  viability, T/C: 112%
[14]
  viability, T/C: 113%
[15]
  viability, T/C: 95.1%
[16]
  viability, T/C: 83.6%
[17]
  viability, T/C: 85.8%
[18]
  viability, T/C: 72.6%
[19]
  viability, T/C: 106%
[20]
  viability, T/C: 123%
[21]
  viability, T/C: 92.5%
[22]
  viability, T/C: 78.8%
[23]
  viability, T/C: 77.6%
[24]
  viability, T/C: 67.8%
[25]
  viability, T/C: 112%
[26]
  viability, T/C: 90.2%
[27]
  viability, T/C: 73.3%
[28]
  viability, T/C: 79.3%
[29]
  viability, T/C: 78.9%
[30]
  viability, T/C: 78%
[31]
  viability, T/C: 90.5%
[32]
  viability, T/C: 103%
[33]
  viability, T/C: 87.8%
[34]
  viability, T/C: 89.7%
[35]
  viability, T/C: 70.5%
[36]
  viability, T/C: 69.8%

## Nc1ccn(C2OC(CO)C(O)C2(F)F)c(=O)n1 (centres undefined) + COC1C(OC(N)=O)C(O)C(Oc2ccc3c(O)c(NC(=O)c4ccc(O)c(CC=C(C)C)c4)c(=O)oc3c2C)OC1(C)C
Second compound 0.0316 µM
  IC50: 830 nM
Second compound 0.1 µM
  IC50: 225 nM
Second compound 0.316 µM
  IC50: 202 nM
Second compound 1 µM
  IC50: 250 nM
Second compound 3.16 µM
  IC50: 180 nM
Second compound 10 µM
  IC50: 533 nM
[1]
  viability, T/C: 60.8%
[2]
  viability, T/C: 49.5%
[3]
  viability, T/C: 51.2%
[4]
  viability, T/C: 49.7%
[5]
  viability, T/C: 43.4%
[6]
  viability, T/C: 27.4%
[7]
  viability, T/C: 78.2%
[8]
  viability, T/C: 60%
[9]
  viability, T/C: 41%
[10]
  viability, T/C: 43.5%
[11]
  viability, T/C: 42.4%
[12]
  viability, T/C: 28.4%
[13]
  viability, T/C: 68.4%
[14]
  viability, T/C: 56.6%
[15]
  viability, T/C: 44.5%
[16]
  viability, T/C: 38.9%
[17]
  viability, T/C: 43.5%
[18]
  viability, T/C: 31.8%
[19]
  viability, T/C: 64.5%
[20]
  viability, T/C: 58.3%
[21]
  viability, T/C: 45.5%
[22]
  viability, T/C: 42.1%
[23]
  viability, T/C: 37.6%
[24]
  viability, T/C: 30.3%
[25]
  viability, T/C: 64.5%
[26]
  viability, T/C: 52.4%
[27]
  viability, T/C: 43.7%
[28]
  viability, T/C: 43.7%
[29]
  viability, T/C: 38.1%
[30]
  viability, T/C: 31.4%
[31]
  viability, T/C: 72.5%
[32]
  viability, T/C: 60.2%
[33]
  viability, T/C: 52.7%
[34]
  viability, T/C: 45.3%
[35]
  viability, T/C: 42.6%
[36]
  viability, T/C: 30.5%
